Entries after “also recorded” stand apart in the source; their conditions may differ.
Columns and labels:
[1] = tested on: male Sprague-Dawley rats; assay: Differential-reinforcement-of-low-rate-30-seconds (DRL-30) test; type: in vivo, rat; conditions: 3, 10 and 30 mg/kg po, 2 h before test
Text: The differential-reinforcement-of low-rate (DRL) test is used not only to assess the potential antidepressant properties of drugs but also their anxiolytic potential. Animals are trained to respond to a certain stimulus by pressing a lever. Typical antidepressants, such as TCAs, increase the time between responses, thereby decreasing the response rate. They also increase the number of reinforced responses i.e. repeated pressing of the lever at least 30 seconds after the initial pressing of the lever. Opposite effects are observed with atypical antidepressants such as nomifensine and with benzodiazepine-like anxiolytics.
The method follows that described by Richards J B, Seiden L S. A quantitative interresponse-time analysis of DRL performance differentiates similar effects of the antidepressant desipramine and the novel anxiolytic gepirone. J Exp Anal Behav. 1991; 56:173-192. Stephens D N, Voet B. Differential effects of anxiolytic and non-anxiolytic benzodiazepine receptor ligands on performance of a differential reinforcement of low rate (DRL) schedule. Behav Pharmacol. 1994; 5:4-14. Typical antidepressants increase the inter-response times, therefore decreasing the rate of responding. They also increase the number of reinforcements. Opposite effects are observed with benzodiazepine-like anxiolytics or with atypical antidepressants.
Male adult Sprague-Dawley rats (Charles River, France) weighing approximately 350 g were used. The animals were housed one per cage in Macrolon Type 3 cages (810 cm^2) with sawdust bedding and wood shavings. Animals had free access to tap water and restricted access (15 g per day) to standard laboratory chow (Ratte Alleinfutter, extrudat No 3436; Provimikliba Kaiseraugst, Switzerland). The animal quarters were maintained on a 12:12 hr light-dark cycle with light onset at 6 a.m. Room temperature (22±2° C.) and humidity (55-65%) were kept constant. The experimental procedures used received prior approval from the City of Basel Cantonal Animal Protection Committee based on adherence to federal and local regulations on animal maintenance and testing. […]

[2] = target: T1, hA1 (Homo sapiens, UniProt P30542); assay: Radioligand binding assay, human A1 receptor; conditions: recombinant hA1
T1 construct: made in house; host or cells: CHO cells, Semliki Forest virus expression system
T1 sequence (P30542 1-326): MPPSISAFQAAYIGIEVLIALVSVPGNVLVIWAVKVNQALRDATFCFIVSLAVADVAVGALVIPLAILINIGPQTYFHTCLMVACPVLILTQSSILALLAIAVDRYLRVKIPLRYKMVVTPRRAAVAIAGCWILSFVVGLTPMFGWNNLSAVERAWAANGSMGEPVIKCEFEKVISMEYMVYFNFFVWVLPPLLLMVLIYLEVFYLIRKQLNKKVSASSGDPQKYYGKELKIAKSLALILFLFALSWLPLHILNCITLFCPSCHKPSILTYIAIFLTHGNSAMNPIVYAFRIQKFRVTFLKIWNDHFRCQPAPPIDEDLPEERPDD
Procedure: Recombinant adenosine A1 (human, hA1; rat rA1), A2A (human hA2A; rat rA2A), A2B (human hA2B), and A3 (human hA3, dog dA3) were expressed in chinese hamster ovary (CHO) cells using the semliki forest virus expression system. […] The pellet was re-suspended in homogenizing buffer, and subsequently re-centrifuged (same conditions). The pellet was re-suspended in buffer (10 mM Tris-Cl, EDTA 2 mM pH 7.4 and adenosine deaminase 0.5 U/ml), incubated at 37° C. for 15 min, then re-centrifuged. The resulting pellet was re-suspended in Tris 10 mM, EDTA 2 mM and 10% Sucrose. The concentration of protein was determined, and the membranes were aliquoted and stored at −80° C. until further use.
Non-specific binding was defined using xanthine amine congener or NECA. […] For both SPA and filtration plates, bound ligand was determined using a Packard Topcount scintillation counter.
The CPM value for each duplicate of a concentration of competing compound was averaged (y1) then the % specific binding calculated, (((y1—non-specific)/(total binding non-specific))×100). […]

[3] = tested on: female Wistar rats; assay: Swim stress test; type: in vivo, rat; conditions: 3, 10 and 30 mg/kg po; vs controls
Procedure: (§1) The swim stress test relies on the principle that when placed in water, rodents after an initial period of vigorous activity, adopt a characteristic immobile posture making only the minimal movements necessary to stay afloat. A reduction in the time of immobility is considered indicative of potential antidepressant-like properties of a particular drug.
The tricyclic antidepressant desipramine was used as reference drug at 100 mg/kg po. Data are mean±SEM based on 8 animals per group.
as §1, with “activity” for “activity,”, “posture,” for “posture”, “drug (Porsolt R D et al. Behavioural despair in rats: a new model sensitive to antidepressant treatments. Eur. J. Pharmacol. 1978; 47:379-391). […]” for “drug.”
Naïve rats were individually forced to swim inside vertical plexiglass cylinders (height: 40 cm; diameter: 17.5 cm) containing 15 cm of water maintained at 23-24° C. […] They were replaced in the cylinders 24 h later and the total duration of immobility was measured during a 5-min test. […]
Data were analyzed using an unpaired Student's t-test. […]

COc1ccc(N2CCOCC2)c2sc(NC(=O)N3CCC(C)(O)CC3)nc12 [4-hydroxy-4-methyl-piperidine-1-carboxylic acid (4-methoxy-7-morpholin-4-yl-benzothiazol-2-yl)-amide]
mean inter-response time (time between responses) [1]: decreased | number of reinforcements (reinforced responses) [1]: tended to decrease | total number of responses [1]: dose-dependent increase; also recorded: significantly and dose-dependently increased | Ki [2]: 1330 ± 106 nM | mean total duration of immobility [3]: dose-dependent decrease; also recorded: significantly and dose-dependently decreased
